Measurements: patent US6310081A, “Biphenyl sulfonyl aryl carboxylic acids useful in the treatment of insulin resistance and hyperglycemia” (American Home Products Corporation, priority 2001, dated 2001)

Assays:
[1] = system: diabetic (ob/ob) mice; test: blood glucose lowering activity in diabetic (ob/ob) mice; assay type: in vivo, mouse (ob/ob, C57 B1/6J); conditions: positive control, 100 mg/kg/day
Excerpt: The procedures used and results obtained are briefly described below.
The no -insulin dependent diabetic (NIDDM) syndrome can be typically characterizes by obesity, hyperglycemia, abnormal insulin secretion, hyperinsulinemia and insulin resistance.
In each test procedure, mice [Male or female ob/ob (C57 B1/6J) and their lean litermates (ob/+ or +/+, Jackson Laboratories) ages 2 to 5 months (10 to 65 g)] of a similar age were randomized according to body weight into 4 groups of 10 mice. The mice were housed 5 per cage and are maintained on normal rodent chow with water ad libitum. Mice received test compound daily by gavage (suspended in 0.5 ml of 0.5% methyl cellulose); dissolved in the drinking water; or admixed in the diet. The dose of compounds given ranges from 2.5 to 200 mg/kg body weight/day. The dose is calculated based on the fed weekly body weight and is expressed as active moiety. […] Control mice received vehicle only.
On the morning of Day 4, 7 or 14 two drops of blood (approximetly 50 ul) were collected into sodium fluoride containing tubes either from the tail vein or after decapitation. […] The plasma was isolated by centrifugation and the concentration of glucose is measured enzymatically on an Abbott V.P. Analyzer.
For each mouse, the percentage change in plasma glucose on Day 4, 7 or 14 is calculated relative to the mean plasma glucose of the vehicle treated mice. […]

[2] = target: T1, hPTP1B (Homo sapiens, UniProt P18031); test: Inhibition of Tri-Phosphorylated Insulin Receptor Dodecaphosphopeptide Dephosphorylation by hPTP1B; assay type: biochemical
T1 construct: made in house
T1 sequence (P18031 1-435): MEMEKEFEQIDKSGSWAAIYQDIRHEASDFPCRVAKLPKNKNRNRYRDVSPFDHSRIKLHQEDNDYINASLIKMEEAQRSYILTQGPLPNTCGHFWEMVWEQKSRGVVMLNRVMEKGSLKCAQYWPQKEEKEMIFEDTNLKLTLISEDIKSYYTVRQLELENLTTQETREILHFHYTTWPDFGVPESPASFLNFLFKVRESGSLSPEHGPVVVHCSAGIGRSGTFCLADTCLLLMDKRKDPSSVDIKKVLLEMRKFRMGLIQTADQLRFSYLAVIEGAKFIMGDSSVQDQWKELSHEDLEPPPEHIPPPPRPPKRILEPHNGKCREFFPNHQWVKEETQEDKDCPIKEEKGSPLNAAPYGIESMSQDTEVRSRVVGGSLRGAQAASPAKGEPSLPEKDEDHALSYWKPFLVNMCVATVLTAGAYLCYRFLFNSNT

Row | Structure (SMILES) | plasma glucose lowering (in words) [1] | IC50 [2] [nM]
1 | CC1(COc2ccc(CC3SC(=O)NC3=O)cc2)CCCCC1 (centres unmarked) [Ciglitazone, 5-(4-(1-methylcyclohexylmethoxy)benzyl)-2,4-dione] | significant lowering in plasma glucose | –
2 | Cc1oc(-c2ccc(C(F)(F)F)cc2)nc1-c1ccc(-c2ccc(OS(=O)(=O)c3ccc(C(=O)O)c(O)c3)cc2)cc1 [Example 14] | – | 193
